One experiment deals with ENR+CD organoids. The experiment in a line: Primary screen: ATP (CellTiter-Glo 3D, CTG) cell number/viability, 2.5-D 384-well ENR+CD organoids.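 For all read-outs here: compounds given at plating and again on day 3 over a 6-day differentiation from ENR+CV stem-cell-enriched precursors, ATP measured on day 6, plate median as control.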 To be noted: primary screen; for Dose.FC.CTG: FC vs plate median; for Z.CTG: standard z score. A general note: In ATP-based viability assays light output follows the ATP content of the culture.
In experiment [1] the test system is ENR+CD organoids (ISC to Paneth cell differentiation). The experiment in a line: Primary screen: CCh-stimulated lysozyme secretion LYZ.S, 2.5-D 384-well ENR+CD organoid differentiation. Type of experiment: cell-based, mouse. Conditions: primary screen; for Dose.FC.LYZ.S: FC vs plate median. An excerpt: (§1) High-throughput screening.
The test system is the same in experiment [2]. The experiment in a line: Primary screen: basal (non-stimulated) lysozyme secretion LYZ.NS, 2.5-D 384-well ENR+CD organoid differentiation. Conditions: primary screen; for Z.LYZ.NS: standard z score; for Dose.FC.LYZ.NS: FC vs plate median. Type of experiment: cell-based, mouse.
Description: as §1

For `CCCCc1nc(Cl)c(CO)n1Cc1ccc(-c2ccccc2-c2nnn[n-]2)cc1.[K+]` [Losartan Potassium (DuP 753)], the “Dose.FC.CTG (log2 fold change)” value was −0.152 in the experiment with ENR+CD organoids (dose 0.08 uM), −0.175 in the experiment with ENR+CD organoids (dose 0.40 uM), −0.081 with ENR+CD organoids (dose 2.00 uM) and −0.137 in the experiment on ENR+CD organoids (dose 10.00 uM). Besides, the “Z.CTG (standard z score)” value is recorded as −0.362 in the experiment with ENR+CD organoids (dose 0.08 uM), −0.418 in the experiment with ENR+CD organoids (dose 0.40 uM), −0.193 in the experiment with ENR+CD organoids (dose 2.00 uM) and −0.328 in the experiment with ENR+CD organoids (dose 10.00 uM). Besides, the “Dose.FC.LYZ.S (log2 fold change)” value was −0.017 in experiment [1] (dose 0.08 uM), 0.027 in experiment [1] (dose 0.40 uM), −0.080 in experiment [1] (dose 2.00 uM) and −0.025 in experiment [1] (dose 10.00 uM). For the same molecule, the “Dose.FC.LYZ.NS (log2 fold change)” value in experiment [2] (dose 0.08 uM) is listed as 0.052; in experiment [2] (dose 0.40 uM) it was 0.038; in experiment [2] (dose 2.00 uM) it was −0.042; in experiment [2] (dose 10.00 uM), 0.062. Besides, the “Z.LYZ.NS (standard z score)” value in experiment [2] (dose 0.08 uM) is 0.449; in experiment [2] (dose 0.40 uM) it was 0.329; in experiment [2] (dose 2.00 uM) it was −0.362; in experiment [2] (dose 10.00 uM) it was 0.540.
`CC[C@H](C)C(=O)O[C@H]1C[C@@H](C)C=C2C=C[C@H](C)[C@H](CC[C@@H]3C[C@@H](O)CC(=O)O3)[C@H]21` [Lovastatin]: the “Dose.FC.CTG (log2 fold change)” value in the experiment with ENR+CD organoids (dose 0.08 uM) was −0.322; with ENR+CD organoids (dose 0.40 uM), −0.492; in the experiment on ENR+CD organoids (dose 2.00 uM), −1.174; in the experiment on ENR+CD organoids (dose 10.00 uM), −1.391. Moreover, the “Dose.FC.LYZ.S (log2 fold change)” value is −0.023 in experiment [1] (dose 0.08 uM), −0.049 in experiment [1] (dose 0.40 uM), −0.398 in experiment [1] (dose 2.00 uM) and −0.409 in experiment [1] (dose 10.00 uM). The “Dose.FC.LYZ.NS (log2 fold change)” value in experiment [2] (dose 0.08 uM) is reported as 0.002; in experiment [2] (dose 0.40 uM), −0.057; in experiment [2] (dose 2.00 uM), −0.279; in experiment [2] (dose 10.00 uM), −0.271. Further, the “Z.LYZ.NS (standard z score)” value in experiment [2] (dose 0.08 uM) was 0.017; in experiment [2] (dose 0.40 uM), −0.492; in experiment [2] (dose 2.00 uM), −2.430; in experiment [2] (dose 10.00 uM), −2.362.
On to `CC(C)CCNC(=O)[C@H](CC(C)C)NC(=O)[C@H]1O[C@@H]1C(=O)O` [Loxistatin Acid (E-64C)], for which the “Dose.FC.CTG (log2 fold change)” value in the experiment on ENR+CD organoids (dose 0.08 uM) was 0.086; with ENR+CD organoids (dose 0.40 uM) it was 0.156; in the experiment on ENR+CD organoids (dose 2.00 uM), 0.080; in the experiment with ENR+CD organoids (dose 10.00 uM), 0.094. Moreover, the “Z.CTG (standard z score)” value in the experiment with ENR+CD organoids (dose 0.08 uM) is given as 0.206; in the experiment on ENR+CD organoids (dose 0.40 uM), 0.373; with ENR+CD organoids (dose 2.00 uM), 0.191; in the experiment with ENR+CD organoids (dose 10.00 uM), 0.224. The “Dose.FC.LYZ.S (log2 fold change)” value is listed as 0.125 in experiment [1] (dose 0.08 uM), 0.105 in experiment [1] (dose 0.40 uM), 0.037 in experiment [1] (dose 2.00 uM) and 0.021 in experiment [1] (dose 10.00 uM). The “Dose.FC.LYZ.NS (log2 fold change)” value in experiment [2] (dose 0.08 uM) was determined as 0.147; in experiment [2] (dose 0.40 uM) it was 0.061; in experiment [2] (dose 2.00 uM) it was 0.055; in experiment [2] (dose 10.00 uM), 0.004. Also, the “Z.LYZ.NS (standard z score)” value came to 1.283 in experiment [2] (dose 0.08 uM), 0.534 in experiment [2] (dose 0.40 uM), 0.482 in experiment [2] (dose 2.00 uM) and 0.031 in experiment [2] (dose 10.00 uM).
As to `C=CCn1c(=O)c2cnc(Nc3ccc(N4CCN(C)CC4)cc3)nc2n1-c1cccc(C(C)(C)O)n1` [MK-1775], the Dose.FC.CTG with ENR+CD organoids (dose 0.08 uM) is given as 0.165 log2 fold change; with ENR+CD organoids (dose 0.40 uM), −0.450 log2 fold change; in the experiment on ENR+CD organoids (dose 2.00 uM), −0.804 log2 fold change; with ENR+CD organoids (dose 10.00 uM), −1.026 log2 fold change. Further, the Dose.FC.LYZ.S was 0.066 log2 fold change in experiment [1] (dose 0.08 uM), −0.217 log2 fold change in experiment [1] (dose 0.40 uM), −0.208 log2 fold change in experiment [1] (dose 2.00 uM) and −0.254 log2 fold change in experiment [1] (dose 10.00 uM). The Z.LYZ.NS in experiment [2] (dose 0.08 uM) is 0.334; in experiment [2] (dose 0.40 uM) it was −1.331; in experiment [2] (dose 2.00 uM), −1.869; in experiment [2] (dose 10.00 uM), −1.574. Further, the Dose.FC.LYZ.NS in experiment [2] (dose 0.08 uM) is recorded as 0.038 log2 fold change; in experiment [2] (dose 0.40 uM), −0.153 log2 fold change; in experiment [2] (dose 2.00 uM), −0.215 log2 fold change; in experiment [2] (dose 10.00 uM), −0.181 log2 fold change.
In the case of `Cl.Cl.NC1(c2ccc(-c3nc4ccn5c(=O)[nH]nc5c4cc3-c3ccccc3)cc2)CCC1` [MK-2206 2HCl], the Z.CTG is 0.169 in the experiment with ENR+CD organoids (dose 0.08 uM), −0.055 in the experiment with ENR+CD organoids (dose 0.40 uM), −0.425 with ENR+CD organoids (dose 2.00 uM) and −1.290 in the experiment on ENR+CD organoids (dose 10.00 uM). Also, the Dose.FC.CTG with ENR+CD organoids (dose 0.08 uM) is 0.071 log2 fold change; with ENR+CD organoids (dose 0.40 uM), −0.023 log2 fold change; in the experiment with ENR+CD organoids (dose 2.00 uM), −0.178 log2 fold change; with ENR+CD organoids (dose 10.00 uM) it was −0.540 log2 fold change. Further, the Dose.FC.LYZ.S is listed as 0.071 log2 fold change in experiment [1] (dose 0.08 uM), 0.083 log2 fold change in experiment [1] (dose 0.40 uM), −0.239 log2 fold change in experiment [1] (dose 2.00 uM) and −0.367 log2 fold change in experiment [1] (dose 10.00 uM). Further, the Z.LYZ.NS in experiment [2] (dose 0.08 uM) is given as 0.205; in experiment [2] (dose 0.40 uM) it was −0.550; in experiment [2] (dose 2.00 uM) it was −1.587; in experiment [2] (dose 10.00 uM) it was −2.058. Moreover, the Dose.FC.LYZ.NS is recorded as 0.024 log2 fold change in experiment [2] (dose 0.08 uM), −0.063 log2 fold change in experiment [2] (dose 0.40 uM), −0.182 log2 fold change in experiment [2] (dose 2.00 uM) and −0.236 log2 fold change in experiment [2] (dose 10.00 uM).
On to `C[C@](O)(COc1ccc(C#N)cc1)C(=O)Nc1ccc(C#N)c(C(F)(F)F)c1` [MK-2866 (GTx-024)], for which the Z.CTG in the experiment with ENR+CD organoids (dose 0.08 uM) is 0.003; in the experiment with ENR+CD organoids (dose 0.40 uM), −0.474; in the experiment with ENR+CD organoids (dose 2.00 uM), −0.210; with ENR+CD organoids (dose 10.00 uM), −0.877. Besides, the Dose.FC.CTG in the experiment with ENR+CD organoids (dose 0.08 uM) was 0.001 log2 fold change; in the experiment on ENR+CD organoids (dose 0.40 uM), −0.198 log2 fold change; in the experiment on ENR+CD organoids (dose 2.00 uM), −0.088 log2 fold change; with ENR+CD organoids (dose 10.00 uM) it was −0.367 log2 fold change. For the same molecule, the Dose.FC.LYZ.S in experiment [1] (dose 0.08 uM) is listed as 0.072 log2 fold change; in experiment [1] (dose 0.40 uM), 0.050 log2 fold change; in experiment [1] (dose 2.00 uM), 0.078 log2 fold change; in experiment [1] (dose 10.00 uM), −0.072 log2 fold change. The Z.LYZ.NS in experiment [2] (dose 0.08 uM) is on record as 0.309; in experiment [2] (dose 0.40 uM), 0.241; in experiment [2] (dose 2.00 uM), 0.310; in experiment [2] (dose 10.00 uM), −0.510. In addition, the Dose.FC.LYZ.NS in experiment [2] (dose 0.08 uM) is given as 0.035 log2 fold change; in experiment [2] (dose 0.40 uM), 0.028 log2 fold change; in experiment [2] (dose 2.00 uM), 0.036 log2 fold change; in experiment [2] (dose 10.00 uM), −0.059 log2 fold change.
As for `O=C(O)Cn1nnc(-c2cc(N3CCC(Oc4cc(F)ccc4Br)CC3)no2)n1` [MK-8245], the Dose.FC.CTG is reported as 0.156 log2 fold change in the experiment with ENR+CD organoids (dose 0.08 uM), −0.113 log2 fold change in the experiment on ENR+CD organoids (dose 0.40 uM), −0.021 log2 fold change in the experiment on ENR+CD organoids (dose 2.00 uM) and −0.263 log2 fold change in the experiment on ENR+CD organoids (dose 10.00 uM). For the same molecule, the Dose.FC.LYZ.S in experiment [1] (dose 0.08 uM) is 0.069 log2 fold change; in experiment [1] (dose 0.40 uM), 0.185 log2 fold change; in experiment [1] (dose 2.00 uM), −0.062 log2 fold change; in experiment [1] (dose 10.00 uM) it was −0.123 log2 fold change. The Z.LYZ.NS is 0.200 in experiment [2] (dose 0.08 uM), 0.273 in experiment [2] (dose 0.40 uM), −0.315 in experiment [2] (dose 2.00 uM) and −0.670 in experiment [2] (dose 10.00 uM). In addition, the Dose.FC.LYZ.NS is 0.023 log2 fold change in experiment [2] (dose 0.08 uM), 0.031 log2 fold change in experiment [2] (dose 0.40 uM), −0.036 log2 fold change in experiment [2] (dose 2.00 uM) and −0.077 log2 fold change in experiment [2] (dose 10.00 uM).
Regarding `COc1ccc(CNCc2cccc3ccccc23)cc1.Cl` [ML133 HCl], the Z.CTG with ENR+CD organoids (dose 0.08 uM) was −0.023; with ENR+CD organoids (dose 0.40 uM), −0.360; in the experiment with ENR+CD organoids (dose 2.00 uM), −0.591; with ENR+CD organoids (dose 10.00 uM) it was −0.096. Moreover, the Dose.FC.CTG was −0.009 log2 fold change with ENR+CD organoids (dose 0.08 uM), −0.151 log2 fold change in the experiment with ENR+CD organoids (dose 0.40 uM), −0.247 log2 fold change with ENR+CD organoids (dose 2.00 uM) and −0.040 log2 fold change with ENR+CD organoids (dose 10.00 uM). The Dose.FC.LYZ.S in experiment [1] (dose 0.08 uM) was 0.062 log2 fold change; in experiment [1] (dose 0.40 uM), −0.018 log2 fold change; in experiment [1] (dose 2.00 uM), 0.087 log2 fold change; in experiment [1] (dose 10.00 uM), −0.014 log2 fold change. In addition, the Z.LYZ.NS is given as 0.261 in experiment [2] (dose 0.08 uM), −0.116 in experiment [2] (dose 0.40 uM), 0.633 in experiment [2] (dose 2.00 uM) and −0.155 in experiment [2] (dose 10.00 uM). Besides, the Dose.FC.LYZ.NS in experiment [2] (dose 0.08 uM) was 0.030 log2 fold change; in experiment [2] (dose 0.40 uM), −0.013 log2 fold change; in experiment [2] (dose 2.00 uM), 0.073 log2 fold change; in experiment [2] (dose 10.00 uM), −0.018 log2 fold change.
